In a melting point compilation (Tetko et al.; mined from patent text by program, amines drawn as free bases though some values may be those of a salt):
Residues, ends and D or L forms follow the SMILES beside them.

| SMILES | melting point [°C] |
| --- | --- |
| CC(C=Cc1ccccc1)NC(=O)c1ccccc1 (racemic) | 135 |
| CCc1c(N2CCC(N)CC2)c(F)cc2c(=O)c(C(=O)O)cn(C3CC3)c12 | 248 to 249 |
| CC(C)(C)c1cc(Cl)c(O)c(C=O)c1 | 75 to 77 |
| CCOc1ccc(OCc2ccc(OCc3nc(-c4ccccc4)oc3C)cc2)c(CCC(=O)O)c1 | 115 to 116 |
| CC#CCOc1cc(-c2ccc(F)cc2F)ncn1 | 63.9 |
| CS(=O)(=O)c1ccc(-c2cnn(-c3cccc(Cl)c3)c(=O)c2OCc2ccccc2)cc1 | 110 to 113 |
| CC(CCCC(C)(C)O)C1CC(=O)C2=C3CCC4CC(O)CCC4(C)C3CCC21C (stereo not given) | 177 to 179 |
| CC(=O)NCC(=O)N(C)c1ccc(Cl)c(COc2cccn3c(Br)c(C)nc23)c1Cl | 187 to 189 |
| COC(=O)Cc1csc(NS(=O)(=O)c2cccc(Cl)c2C)n1 | 187 |
| COc1ccc(S(=O)(=O)n2c(CCCC(=O)O)cc3nc(Cl)ccc32)cc1 | 189 |
| CN1Cc2c(CO)ncn2-c2cccc(Cl)c2C1=O | 207 to 208 |
| CC(C)COc1ccc(NC(=O)c2cnn(-c3ccc(F)cc3)c2O)cc1C#N | 207 to 208 |
| CC1CCN(c2cc3nc(C(C)(C)C)sc3cc2NC(=S)N2CCN(C)CC2)CC1 | 192 to 195 |
| c1cc(NCC2CCCO2)c2cc3c(cc2n1)OCO3 (stereo not given) | 276 to 278 |
| CCC(=O)c1ncn2c1CN(C)C(=O)c1ccccc1-2 | 215 to 216 |
| Clc1ccc(-c2ccc[nH]2)cc1Cl | 49 to 51 |
| O=C(O)c1cccc2c1CCC2Cl (stereo not given) | 136 to 138 |
| Cn1nc(-c2ccc(C(=O)N3CCN(C4CCCC4)CC3)cc2)ccc1=O | 177 to 179 |
| COc1cc(C=CC(=O)Nc2cnc3c(C)cc(C)cc3c2-c2ccccc2Cl)ccc1OC(C)=O | 174 to 175 |
| Cc1oc(-c2ccccc2)nc1COc1ccc(COc2ccccc2CC(=O)O)cn1 | 123 to 125 |
| COc1cccc(N(C)C(=O)Oc2ccc(C(C)C)cc2)n1 | 64 to 65 |
| O=C(O)CCc1cn(Cc2ccc(OCc3csc(-c4cnccn4)n3)cc2)cc1-c1ccccc1 | 137 to 138 |

| SMILES | melting point [°C] |
| --- | --- |
| COc1ccc(N2CCN(c3c(C)c(C)c4c(c3C)C(O)(c3ccc(F)nc3)C(C)(C)O4)CC2)cc1 (stereo not given) | 129 to 131 |
| CC(=O)Nc1c(C#N)cnn1-c1c(F)c(F)c(C(F)(F)F)c(F)c1F | 153 to 154 |
| CCN(CC)Cc1[nH]c(C)c(-c2ccnc(Nc3ccc(F)cc3)n2)c1C | 71.9 to 74.2 |
| CCN1CCN(c2ccc(C(=O)NCCCCCCCCCCCCO[N+](=O)[O-])cn2)CC1 | 71 to 72 |
| O=C1CN2Cc3cc(C(=O)c4ccccc4)ccc3N=C2N1 | > 300 |
| COc1ccc(CN(C)CCOc2ccc(NC(=O)c3cccc4c(=O)c5ccccc5[nH]c34)cc2)cc1OC | 140 |
| NC(=O)c1nc(-c2ccccc2)n2c1CN=C(c1ccccc1F)c1cc(Cl)ccc1-2 | 260 to 262 |
| O=C(NN=c1[nH]nc(Cl)c2ccccc12)c1ccccc1 | 162 |
| CCN1CCC(c2ccccc2)=C(C(=O)NC)C1 | 103 to 105 |
| CC(C)n1nc(-c2c(-c3ccccc3)nn3ccc(N4CCN(S(C)(=O)=O)CC4)cc23)ccc1=O | 219 to 220 |
| CCOC(=O)Oc1ccc(/C(=C(/CC)c2ccccc2)c2ccc(/C=C/C(=O)O)cc2)cc1 | 135 to 136 |
| COC(=O)c1nc(-c2ccc(Cl)cc2)c(F)c(N)c1I | 114 to 115 |
| Cc1cn(-c2ccc(NC(=O)c3ccc(Cl)c(C#Cc4ccc(NC(C)C)nn4)c3)cc2C(F)(F)F)cn1 | 133 to 135 |
| CCCNC(=O)C(C)Cc1ccc2cccc(Cc3ccc(C(=O)O)cc3OC)c2c1 (stereo not given) | 199 to 200 |
| COc1cc(C)nc(-c2ccc(C)cc2)n1 | 66 to 67 |
| CC1CC(=O)NN=C1c1ccc2c(c1)N(S(C)(=O)=O)CCO2 (stereo not given) | 207 to 212 |
| NC(=O)c1cc(OCCCN2CCN(c3cccc4sccc34)CC2)c2ccccc2n1 | 153 to 154 |
| COc1c(OC)c(OC(C)=O)c2cc(OCCc3ccccc3)ccc2c1OC(C)=O | 70 to 71 |
| O=[N+]([O-])c1ccc(-c2n[nH]c3c2Cc2ccccc2-3)cc1 | 267 to 270 |
| CCn1c(=O)c2nc(C(=O)O)cn2c2ccccc21 | 250 to 252 |
| CN1Cc2c(-c3nc(CCl)cs3)ncn2-c2ccccc2C1=O | 248 to 249 |
| COc1ccc(N2CCN(c3c(C)c(C)c4c(c3C)C(Nc3ccccc3)C(C)(C)O4)CC2)cc1 (stereo not given) | 90 to 94 |

| SMILES | melting point [°C] |
| --- | --- |
| O=C(NCC1Cc2cc(Cl)c3c(c2O1)CCC3)OCc1ccccc1 (stereo not given) | 118 to 121 |
| CC(C)(C#N)c1cc(CC#N)cc(C(C)(C)C#N)c1 | 72 to 73 |
| CCN1C(=O)C(C)(C)C(=O)N(C)c2cc(CN(CCn3ccc4oc(C)cc4c3=O)Cc3ccnn3C)ccc21 | 128 to 131 |
| CC1(c2cccc(N)c2)OCCO1 | 75 to 77 |
| Oc1cc(CCl)nc(C(Cl)(Cl)Cl)n1 | 138 to 144 |
| O=[N+]([O-])c1ccc2c(c1)CN1C(=S)SC[C@@H]1C2 | 182 |
| CN(c1ccc(Cl)cc1)c1nc(=O)c2ccncc2s1 | 255 to 256 |
| O=C1N(Cc2cncc(F)c2)c2ccccc2C12COc1cc3c(cc12)OCCO3 (stereo not given) | 197 to 200 |
| CCOc1ccc(-n2c(C(C)N(Cc3cccnc3)C(=O)OC(C)(C)C)nc3ccccc3c2=O)cc1 (stereo not given) | 67.5 |
| O=C(Cc1ccccc1[N+](=O)[O-])CN1C(=O)c2ccccc2C1=O | 179 to 182 |
| O=[N+]([O-])c1ccc(C2CCNCC2)cc1 | 90 to 92 |
| Nc1ccc(C23CC2C(=O)N(Cc2ccccc2)C3=O)cc1 (stereo not given) | 147 to 149 |
| CC(C)NC(=S)Nc1cccc(-c2ccnc3c(C(=O)c4cccs4)cnn23)c1 | 208 to 210 |
| O=C1c2ccccc2C(=O)N1CCCN(c1ccccc1)c1ccccn1 | 103 to 105 |
| CCCCN1CCC(CNC(=O)c2ccc(N)n3cc(-c4ccccc4)nc23)CC1 | 221 |
| O=C(O)C(CC1CCCC1)c1ccc([N+](=O)[O-])cc1 (stereo not given) | 119 to 125 |
| CCCc1nc(CO)n2[nH]c(=O)nc2c1Cc1ccc(-c2ccccc2-c2nnn[nH]2)cc1 | 182 to 183 |
| Cc1c(N2CCNCC2)nn2c(-c3ccncc3)c(-c3ccc(F)cc3)nc2c1C | 233 to 235 |
| CCCc1nc2c(C)cc(-c3nc4ccccc4n3C)cc2n1Cc1ccc(-c2ccccc2S(=O)(=O)O)cc1 | 307 to 310 |
| COc1cccc(CCN2C(=O)c3ccccc3C2(O)c2ccncc2)c1 (stereo not given) | 190 |

Continued, values first:

| melting point [°C] | SMILES |
| --- | --- |
| 120 to 122 | CCCCCCCN(CCCCCSc1nc2ccc([N+](=O)[O-])cc2[nH]1)C(=O)Nc1ccc(F)cc1F |
| 119 to 122 | O=[N+]([O-])c1ccccc1Sc1ccncc1 |
| 69 to 72 | CCOC(=O)c1cc(-n2c(OC)nc(C(F)(F)F)c(F)c2=O)c(F)cc1Cl |
| 227 to 229 | O=C(c1ccc([N+](=O)[O-])cc1)N1Cc2ccnn2Cc2ccccc21 |
| 102 to 105 | Nc1ncc(Cl)nc1Br |
| 182 to 187 | COc1cc(OCc2ccccn2)ccc1/C=C/c1cc(/C=C/c2ccc3ccn(C(C)=O)c3c2)n[nH]1 |
| 188 to 190 | NC(=O)c1cc(N)ccc1SSc1ccc(N)cc1C(N)=O |
| 123 to 129 | O=C1OC(CCCCN2CCN(c3ccccc3O)CC2)CN1c1ccccc1 (stereo not given) |
| 184 to 185 | COc1cc(Cl)cc(OC(=O)c2cc3cc(CCl)ccc3oc2=O)c1 |
| 61 to 62.5 | CC=CCOc1c(I)cc(C(C)O)nc1Cl (stereo not given) |
| 85 to 87 | CS(=O)(=O)OC1CN(C(c2ccccc2)c2ccccc2)C1 |
| 124 to 126 | CCOC(=O)Oc1ncc(F)c(N=CN(C)C)n1 |
| 133 | COc1cc(OC)c([N+](=O)[O-])c(OC)c1NC(=O)OCCCl |
| 201 to 210 | Nc1ccc(Oc2ccc3ccc(Oc4ccc(N)c(O)c4)cc3c2)cc1O |
| 202 to 204 | CCNC(=O)CN(c1ccccc1)[C@@H]1c2cc(C#N)ccc2OC(C)(C)[C@@H]1O |
| 118 to 120 | COC(=O)CCC/C=C/c1nn(-c2ccc(NC(C)=O)cc2)c2c1CCC2 |

| melting point [°C] | SMILES |
| --- | --- |
| 146 to 147 | O=C1NC(=O)C(Cc2ccc(OCCON3C(=O)c4ccccc4C3=O)cc2)S1 (stereo not given) |
| 143 to 145 | CC(=O)NC(Cc1ccccc1)C(=O)NC(Cc1ccccc1)C(=O)NC(Cc1c[nH]cn1)C(=O)O (stereo not drawn) (Ac-Phe-Phe-His-OH; configuration not given here) |
| 105 to 107 | CCCC(=O)C1=C(O)CC(c2cc(C(C)C)no2)CC1=O (stereo not given) |
| 188 | O=C(NCC1CCN(CC2(C(=O)O)CCCC2)CC1)N1C(=O)C2(CCCC2)c2ccccc21 |
| 145 | O=C(c1ccc([N+](=O)[O-])cc1)N1CCc2cc(S(=O)(=O)N3CC(c4ccccc4)NC3=O)ccc21 (stereo not given) |
| 143 to 144 | COCC(C)Nc1cc(-c2ccnc(Nc3cccc(Cl)c3)n2)ccn1 (stereo not given) |
| 120 to 121 | CC(=NO)C1(c2ccc(Cl)c(Cl)c2)CCC1 |
| 254 to 256 | CNC1N=CN(c2c(C)cccc2Cl)C(=O)N1 (stereo not given) |
| 120 to 121 | Cc1[nH]c2ccccc2c1CCC(=O)N1CCN(c2ccccc2)CC1 |
| 176 to 177 | CCNC(=O)NC(=S)N1N=C(c2ccc([N+](=O)[O-])cc2)c2cc3c(cc2CC1C)OCO3 (stereo not given) |
| 122 to 124 | COc1cc2c(Nc3cc(OC)c(OC)c(OC)c3)c(C#N)cnc2cc1/C=C/CCN1CCN(C)CC1 |
| 87 to 88 | CCOC1(OCC)OC(C)=C(C(=O)OC)[C@@H](NC(C)=O)[C@@H]1C (relative stereo) |
| 128 to 132 | OC1(c2ccccn2)CCNCC1 |
| 72 to 76 | CS(=O)(=O)c1ccc(C(=O)C2C(=O)CCCC2=O)c(Cl)c1C1=NOC(Cc2ccccc2)C1 (stereo not given) |
| 225 to 227 | Nc1nccc(CCc2ccc3c(C(=O)Nc4cccc(C(F)(F)F)c4)cccc3c2)n1 |
